This test concerns Vero-E6 cells. The experiment in a line: cells. Format: cell-based. The conditions noted are these: Chlorocebus sabaeus, Vero C1008, 24 h, read-out: PL_Result.

Consider `C[C@H](O)[C@H](O)[C@H]1CNc2[nH]c(N)nc(=O)c2N1` [SPE_K36859431], for which the activation at 10 µM was -1.35%.

Turning to `CCCCCCCCCCCCCCCCO` [SPE_K37203094], the activation at 10 µM was found to be 1.52%.

Turning to `CC(=O)c1ccc2c(c1)N(CCCN(C)C)c1ccccc1S2` [SPE_K37814297], the activation at 10 µM is 27.3%.

For the molecule `O=C(Oc1cc(S(=O)(=O)c2ccccc2)ccc1[N+](=O)[O-])c1ccc(Cl)cc1` [SPE_K37933329], the activation at 10 µM is -5.26%.

In the case of `C[C@@H]1C[C@H]2[C@@H]3C[C@H](F)C4=CC(=O)C=C[C@]4(C)[C@@]3(Cl)[C@@H](O)C[C@]2(C)[C@H]1C(=O)COC(=O)C(C)(C)C` [SPE_K38003476], the activation at 10 µM is -1.81%.

As for `CCCCNc1cc(C(=O)O)cc(S(N)(=O)=O)c1Oc1ccccc1` [SPE_K38197229], the activation at 10 µM was -2.26%.

`CNc1ncc2cc(-c3cc(NC(=O)NCCC(C)(C)C)c(F)cc3C)c(C)nc2n1` [SPE_K38385169]: the activation at 10 µM was -2.79%.

As for `COc1cc(O)c(C(=O)c2ccccc2)cc1S(=O)(=O)O` [SPE_K38602774], the activation at 10 µM was -11.2%.

With `Oc1cccc(Nc2ccc(Nc3cccc(O)c3)nn2)c1` [SPE_K38687824], the activation at 10 µM was -9.16%.

As to `COc1ccc(-n2c(C)c([N+](=O)[O-])c3ccc(O)cc32)cc1` [SPE_K39166528], the activation at 10 µM was -10.4%.

Turning to `CC(C)Oc1ccc(-c2cnc3c(-c4ccnc5ccccc45)cnn3c2)cc1` [SPE_K39381259], the activation at 10 µM is -4.31%.

With `CCCCc1nn(-c2ccccc2C(F)(F)F)c(=O)n1Cc1ccc(-c2ccccc2S(=O)(=O)NC(=O)c2sccc2C)cc1` [SPE_K39733634], the activation at 10 µM was -1.37%.

In the case of `N#Cc1cccc(-c2nc(-c3cccnc3)no2)c1` [SPE_K40176866], the activation at 10 µM is -7.54%.

On to `CC[C@]12CCCN3CCc4c(n(c5ccccc45)C(=O)C1)[C@@H]32` [SPE_K40227168], for which the activation at 10 µM was -8.29%.

For `Cc1nccc2[nH]c(=O)ccc12` [SPE_K40715924], the activation at 10 µM was -2.15%.

`C=CCN1CC[C@]23c4c5ccc(O)c4O[C@H]2[C@@H](OCCOCCOCCOCCOCCOCCOCCOC)CC[C@@]3(O)[C@H]1C5` [SPE_K41458421]: the activation at 10 µM is -3.45%.

`CC(C)[C@H](CO)Nc1nc(Nc2ccc(C(=O)O)c(Cl)c2)c2ncn(C(C)C)c2n1` [SPE_K41564320]: the activation at 10 µM amounted to 1.13%.

`COc1cc2ncnc(Nc3cccc(Cl)c3F)c2cc1OC(=O)N1CCN(C)C[C@H]1C` [SPE_K41626799]: the activation at 10 µM was -12.8%.

For `Oc1cc(Cl)ccc1Oc1ccc(Cl)cc1Cl` [SPE_K41731458], the activation at 10 µM was determined as 0.158%.

For `O=C(O)C1=CCCN(CCON=C(c2ccccc2)c2ccccc2)C1` [SPE_K42221274], the activation at 10 µM came out at 0.196%.

For `CCOc1cccc(NC(=O)c2ccc(N3CCCC3)c(C(F)(F)F)c2)c1` [SPE_K42536037], the activation at 10 µM was -13.1%.

On to `COc1cccc(-c2cc(NCc3ccc4c(c3)OCO4)nc(N)n2)c1` [SPE_K42624714], for which the activation at 10 µM is -1.5%.

For the molecule `CC(=O)N(OCc1ccccc1)[C@@H]1c2cc(C#N)ccc2OC(C)(C)[C@H]1O` [SPE_K42679050], the activation at 10 µM came to 0.738%.

On to `COc1cc2c(cc1OC)C(c1ccc(N)cc1)=NNC(=O)C2` [SPE_K42859542], for which the activation at 10 µM amounted to 0.928%.

In the case of `CC(=O)c1ccc2c(c1)N(CCCN1CCN(CCO)CC1)c1ccccc1S2` [SPE_K42938903], the activation at 10 µM turned out to be 52.6%.

Consider `CC(C)S(=O)(=O)NC[C@H](C)c1ccc(-c2ccc(CCNS(C)(=O)=O)cc2)cc1` [SPE_K42981054], for which the activation at 10 µM is -11.8%.

Regarding `O=c1c(O)c(-c2cc(O)c(O)c(O)c2)oc2cc(O)cc(O)c12` [SPE_K43149758], the activation at 10 µM was -18.6%.

For `C[C@@H](NC(=O)c1ncnc(N)c1Cl)c1ncc(C(=O)Nc2cc(C(F)(F)F)c(Cl)cn2)s1` [SPE_K43410529], the activation at 10 µM is -2.41%.

In the case of `O=c1c(-c2ccc(O)cc2)coc2cc(O)cc(O)c12` [SPE_K43797669], the activation at 10 µM turned out to be 24.8%.

As to `N=C(N)NCc1cccc(I)c1` [SPE_K43860855], the activation at 10 µM is -5.07%.

As for `NCCc1ccc(O)c(O)c1` [SPE_K43887077], the activation at 10 µM is -4.01%.

`Cc1ccc2c(c1CCC(=O)O)CC[C@@H](NS(=O)(=O)c1ccc(Cl)cc1)C2` [SPE_K43975632]: the activation at 10 µM was 0.256%.

On to `Cc1cc(-c2nncc3c(C(C)(C)C)c(OCc4ncnn4C)nn23)no1` [SPE_K44022883], for which the activation at 10 µM was -4.38%.

As to `Cc1nc(-c2cn3c(n2)-c2ccc(-c4cnn(C(C)(C)C(N)=O)c4)cc2OCC3)n(C(C)C)n1` [SPE_K44844162], the activation at 10 µM is 4.98%.

On to `Oc1cc2c(cc1O)CN(C(=S)NCCc1ccc(Cl)cc1)CCC2` [SPE_K44849676], for which the activation at 10 µM was -5.94%.

Consider `CCC(C)(C)C(=O)C(=O)N1CCC[C@H]1C(=O)OCCCc1cccnc1` [SPE_K44869961], for which the activation at 10 µM is 2.45%.

For `Cc1ccc(-c2nc3ccc(C)cn3c2CC(=O)N(C)C)cc1` [SPE_K44876623], the activation at 10 µM was -2.13%.

In the case of `CS(=O)(=O)c1ccc(-c2cn3ccccc3n2)cc1` [SPE_K45125084], the activation at 10 µM is -7.32%.

As to `O=C1NC(=S)NC(=O)C1C(=O)Nc1ccccc1` [SPE_K45152786], the activation at 10 µM is -1.42%.

For the molecule `C[C@H](CCC(=O)NCCS(=O)(=O)O)[C@H]1CC[C@H]2[C@@H]3[C@@H](O)C[C@@H]4C[C@H](O)CC[C@]4(C)[C@H]3CC[C@]12C` [SPE_K45245728], the activation at 10 µM was -11.6%.

In the case of `C=C(C)[C@@H]1CC[C@]2(C(=O)O)CC[C@]3(C)[C@H](CC[C@@H]4[C@@]5(C)CC[C@H](O)C(C)(C)[C@@H]5CC[C@]43C)[C@@H]12` [SPE_K45401373], the activation at 10 µM was -11.4%.

Turning to `O=[N+]([O-])c1cc(Cl)ccc1S(=O)(=O)N1CCN(Cc2ccccc2)CC1` [SPE_K45519571], the activation at 10 µM came out at 3.29%.

Take `CCN(CC)C(=O)N1CCN(C)CC1` [SPE_K45542189]: the activation at 10 µM was determined as 3.18%.

In the case of `Cc1cc(N2CCOCC2)ccc1Nc1nc(NC2CCCCC2)c2nc[nH]c2n1` [SPE_K45551181], the activation at 10 µM is -0.298%.

Take `CCCCC/C=C\C/C=C\CCCCCCCC(=O)NCCCC(=O)O` [SPE_K46254452]: the activation at 10 µM was determined as 0.426%.

For `CC(C)Oc1ccc(-c2nc(-c3cccc4c3CC[C@@H]4NCCO)no2)cc1C#N` [SPE_K46625559], the activation at 10 µM is -0.603%.

With `Cn1ncnc1COc1nn2c(-c3cc(F)ccc3F)nnc2cc1C(C)(C)C` [SPE_K46647427], the activation at 10 µM was -14.8%.

`Cc1[nH]cnc1CN1CCc2c(c3ccccc3n2C)C1=O` [SPE_K46742498]: the activation at 10 µM came out at 6.83%.

In the case of `CC(=O)Nc1ccc(C(=O)O)cc1` [SPE_K47195926], the activation at 10 µM worked out at 3.66%.

With `Cc1c(NC(=O)c2cccnc2)c(=O)n(-c2ccccc2)n1C` [SPE_K47407372], the activation at 10 µM was -10.1%.

Turning to `Cc1cc2sc(NC(=O)Cc3ccccc3)nc2cc1Cl` [SPE_K47409078], the activation at 10 µM turned out to be 0.438%.

`COc1ccc(C2C(=O)c3ccccc3C2=O)cc1` [SPE_K47458712]: the activation at 10 µM was -11.2%.

For `CC(=O)NC[C@H]1CN(c2ccc(N3CCN(C(=O)CO)CC3)c(F)c2)C(=O)O1` [SPE_K47554101], the activation at 10 µM is -3.34%.

Regarding `Cc1cccc(NC(=O)c2ccc(C(F)(F)F)cc2C(=O)O)n1` [SPE_K47816470], the activation at 10 µM is -2.17%.

On to `CC(C)CN(C[C@@H](O)[C@H](Cc1ccccc1)NC(=O)O[C@H]1CCOC1)S(=O)(=O)c1ccc(N)cc1` [SPE_K47827687], for which the activation at 10 µM was determined as 0.458%.

Consider `NC[C@@H]1CC[C@@H](N)[C@@H](O[C@H]2[C@H](O)[C@@H](O[C@H]3O[C@H](CO)[C@@H](O)[C@H](N)[C@H]3O)[C@H](N)C[C@@H]2N)O1` [SPE_K48427910], for which the activation at 10 µM is -9.88%.

Take `O=C1NC(c2cccc([N+](=O)[O-])c2)=CCN1c1ccccc1O` [SPE_K48869804]: the activation at 10 µM is 1.47%.

In the case of `CCC/C=C1\OC(=O)C2=C1CCC=C2` [SPE_K48875051], the activation at 10 µM was -12.3%.

On to `Cc1c(N)cccc1Cn1ccc(OCCc2cccs2)cc1=O` [SPE_K48888725], for which the activation at 10 µM was determined as 1.09%.

With `O=C(Oc1ccccc1C(=O)O)c1ccccc1O` [SPE_K48892307], the activation at 10 µM is -11.6%.

Take `C[C@H](CCC(=O)O)[C@H]1CC[C@H]2[C@@H]3C[C@H](O)[C@@H]4C[C@H](O)CC[C@]4(C)[C@H]3CC[C@]12C` [SPE_K49031386]: the activation at 10 µM was -3.75%.

As to `Nc1nc2ccc(Cl)cc2c2nc(-c3ccco3)nn12` [SPE_K49049886], the activation at 10 µM is 7.39%.

Consider `Cn1cc(-c2cc(Oc3cc(F)c(NC(=O)C4(C(=O)Nc5ccccc5)CC4)cc3F)ccn2)cn1` [SPE_K49246350], for which the activation at 10 µM was -0.953%.

As to `Cc1nc(Nc2ncc(C(=O)Nc3c(C)cccc3Cl)s2)cc(N2CCN(CCO)CC2)n1` [SPE_K49328571], the activation at 10 µM was determined as 0.377%.

For the molecule `COc1ccc(Cl)c(Nc2nc3ccccc3nc2NS(=O)(=O)c2cccc(NC(=O)C(C)(C)N)c2)c1` [SPE_K49456274], the activation at 10 µM is -4.27%.

Consider `CCN1CCC(n2cc(CNc3cc(Cl)c4ncc(C#N)c(Nc5ccc(F)c(Cl)c5)c4c3)nn2)CC1` [SPE_K49468759], for which the activation at 10 µM stood at 33.2%.

On to `C1CCC2(CC1)CCNCC2` [SPE_K49545903], for which the activation at 10 µM was -14.5%.

For `COC(=O)Nc1ccc(-c2nc(N3CCOCC3)c3cnn(C4CCN(Cc5cccnc5)CC4)c3n2)cc1` [SPE_K49900195], the activation at 10 µM was 1.79%.

In the case of `CCOc1c2c(c(OCC)c3ccccc13)C(=O)N(c1ccc(CC(=O)NS(=O)(=O)c3ccccc3)cc1)C2` [SPE_K50005760], the activation at 10 µM is -9.22%.

Consider `C=CC(=O)N1CCC(Oc2cc3c(Nc4ccc(Cl)c(Cl)c4F)ncnc3cc2OC)CC1` [SPE_K50010139], for which the activation at 10 µM is -3.41%.

In the case of `C[C@@H]1CN(Cc2ncccn2)C[C@H]1c1nc2c(cnn2C2CCOCC2)c(=O)[nH]1` [SPE_K50031829], the activation at 10 µM is -10.7%.

For `CCOc1cc(N2CCC(O)CC2)ccc1Nc1ncc2c(n1)N(C)c1ccccc1C(=O)N2C` [SPE_K50387473], the activation at 10 µM is -6.3%.
